Experiment [1] deals with T1, Recombinant BTK^WT kinase (Homo sapiens, UniProt Q06187).
T1 construct: purchased Invitrogen
The experiment in a line: BTK WT binding affinity (LanthaScreen TR-FRET). Particulars: Kinase Tracer 236, 5 h incubation. A digest of the protocol: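 Tracer-displacement TR-FRET: 2.5 nM recombinant BTK^WT, 2 nM Eu anti-His antibody and 15 nM Kinase Tracer 236 incubated with varying inhibitor concentrations for 5 h in Kinase Buffer A. Signal read at 340 nm excitation, 615/665 nm emission; IC50 from variable-slope log[inhibitor]–response fit.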
A general note: TR-FRET usually uses a lanthanide donor and a delayed reading to cut background.

Experiment [2] deals with T2, Recombinant BTK^C481S kinase (Homo sapiens, UniProt Q06187, C481S).
T2 construct: purchased SignalChem
Put plainly: BTK C481S binding affinity (LanthaScreen TR-FRET). Particulars: Kinase Tracer 236, 5 h incubation. A digest of the protocol:
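BTK C481S tracer-displacement TR-FRET: 5 nM His-tagged kinase, 2 nM Eu anti-His antibody and 30 nM Kinase Tracer 236 incubated with titrated inhibitor for 5 h in Kinase Buffer A. Read at 340 nm excitation, 615/665 nm emission; IC50 from variable-slope log[inhibitor]–response fit.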

In the next experiment the target is T3, Recombinant EGFR (Homo sapiens, UniProt P00533).
T3 construct: purchased Invitrogen
Put plainly: EGFR binding affinity (LanthaScreen TR-FRET). Particulars: Kinase Tracer 199, 5 h incubation. A digest of the protocol: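 TR-FRET binding (LanthaScreen) with recombinant EGFR; signal measured across a compound concentration range. IC50 obtained by fitting RFU against log[inhibitor] to a variable-slope model.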

Experiment [3] has as its system OCI-Ly10 human DLBCL cells. Put plainly: OCI-Ly10 anti-proliferative activity (Resazurin). Type of experiment: cell-based. Conditions: OCI-Ly10 cells, 72 h compound treatment, Resazurin, read-out: Proliferation Assay OCI-Ly10-20% FBS. The method, boiled down: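 OCI-Ly10 human DLBCL cells, whose growth depends on NFκB signalling, were seeded at 7.5×10^3 cells per well in 96-well plates with a range of compound concentrations and kept at 37° C for 72 h. Resazurin was then added, and after 5 h fluorescence was read at 590 nm.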

SMILES strings stand for the structures. Read-outs that look alike come from different tables or passages of the source.

T2 sequence (Q06187 whole entry C481S): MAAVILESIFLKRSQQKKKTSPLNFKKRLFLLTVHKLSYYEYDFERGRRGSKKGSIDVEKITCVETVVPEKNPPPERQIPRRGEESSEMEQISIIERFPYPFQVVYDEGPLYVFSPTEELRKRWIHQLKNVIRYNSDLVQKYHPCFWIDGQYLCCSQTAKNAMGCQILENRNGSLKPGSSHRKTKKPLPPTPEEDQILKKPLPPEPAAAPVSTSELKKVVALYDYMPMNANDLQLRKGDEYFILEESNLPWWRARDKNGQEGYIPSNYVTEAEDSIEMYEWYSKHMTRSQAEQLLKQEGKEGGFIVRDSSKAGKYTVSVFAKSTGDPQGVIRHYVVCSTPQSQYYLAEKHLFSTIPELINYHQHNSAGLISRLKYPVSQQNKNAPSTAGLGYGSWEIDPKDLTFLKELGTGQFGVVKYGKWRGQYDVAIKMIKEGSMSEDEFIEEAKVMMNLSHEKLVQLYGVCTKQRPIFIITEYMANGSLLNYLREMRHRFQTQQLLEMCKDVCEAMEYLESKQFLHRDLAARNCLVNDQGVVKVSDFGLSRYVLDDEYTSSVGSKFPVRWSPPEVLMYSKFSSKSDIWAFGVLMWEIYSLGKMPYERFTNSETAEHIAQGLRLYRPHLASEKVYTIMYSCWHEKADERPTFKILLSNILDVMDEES
T3 sequence (P00533 25-1210): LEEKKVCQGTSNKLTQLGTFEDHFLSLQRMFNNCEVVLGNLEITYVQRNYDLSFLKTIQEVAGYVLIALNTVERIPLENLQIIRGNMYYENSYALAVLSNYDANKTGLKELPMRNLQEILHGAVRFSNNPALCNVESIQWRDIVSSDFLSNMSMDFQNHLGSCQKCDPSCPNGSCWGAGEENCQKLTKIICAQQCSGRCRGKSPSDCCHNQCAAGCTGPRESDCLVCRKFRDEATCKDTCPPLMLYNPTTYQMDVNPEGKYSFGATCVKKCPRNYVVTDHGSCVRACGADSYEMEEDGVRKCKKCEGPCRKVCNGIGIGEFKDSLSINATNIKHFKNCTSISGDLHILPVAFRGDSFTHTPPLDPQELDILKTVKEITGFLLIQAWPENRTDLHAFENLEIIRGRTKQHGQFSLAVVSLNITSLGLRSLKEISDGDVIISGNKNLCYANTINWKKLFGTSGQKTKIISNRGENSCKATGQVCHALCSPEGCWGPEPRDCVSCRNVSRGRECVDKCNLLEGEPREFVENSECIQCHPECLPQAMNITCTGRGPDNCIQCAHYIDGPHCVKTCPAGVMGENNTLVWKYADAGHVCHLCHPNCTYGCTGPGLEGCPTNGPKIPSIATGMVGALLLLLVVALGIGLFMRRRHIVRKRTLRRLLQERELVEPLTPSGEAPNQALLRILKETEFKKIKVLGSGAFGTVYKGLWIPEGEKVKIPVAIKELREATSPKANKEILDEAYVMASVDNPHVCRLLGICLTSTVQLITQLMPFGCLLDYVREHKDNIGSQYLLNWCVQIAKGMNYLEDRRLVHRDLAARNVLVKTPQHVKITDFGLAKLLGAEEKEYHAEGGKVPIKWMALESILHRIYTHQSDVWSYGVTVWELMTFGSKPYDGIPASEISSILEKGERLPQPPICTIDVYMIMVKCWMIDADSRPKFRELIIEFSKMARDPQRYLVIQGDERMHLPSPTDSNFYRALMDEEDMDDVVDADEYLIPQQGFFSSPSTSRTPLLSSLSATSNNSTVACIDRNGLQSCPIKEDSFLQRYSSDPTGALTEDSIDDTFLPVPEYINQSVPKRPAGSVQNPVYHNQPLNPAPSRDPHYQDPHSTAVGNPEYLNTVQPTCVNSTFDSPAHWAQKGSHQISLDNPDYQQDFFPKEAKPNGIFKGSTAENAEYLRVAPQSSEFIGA
T1 sequence (Q06187 whole entry): as the sequence (Q06187 whole entry C481S) above, with S481C counted along it

For `COc1ccc(C)cc1C(=O)NCc1ccc(-c2nn(C3CCCC3)c(N)c2C(N)=O)cc1F` [Example 92, 5-amino-1-cyclopentyl-3-[3-fluoro-4-[[(2-methoxy-5-methyl-benzoyl)amino]methyl]phenyl]pyrazole-4-carboxamide], the IC50 is less than 10 nM in experiment [1]; less than 10 nM in experiment [2]; more than 10000 nM on Recombinant EGFR; 10 to 100 nM in experiment [3] (Homo sapiens, OCI-Ly10, 72 h).

Turning to `COc1ccccc1C(=O)NCc1ccc(-c2nn(C(C)c3cccnc3)c(N)c2C(N)=O)cc1` (centres unmarked) [Example 145, 5-amino-3-[4-[[(2-methoxybenzoyl)amino]methyl]phenyl]-1-[1-(3-pyridyl)ethyl]pyrazole-4-carboxamide], the IC50 is 10 to 100 nM in experiment [1]; 10 to 100 nM in experiment [2]; more than 10000 nM on Recombinant EGFR; 100 to 1000 nM in experiment [3] (Homo sapiens, OCI-Ly10, 72 h).

As to `COc1ccc(F)cc1C(=O)NCc1ccc(-c2nn(C(C)C(F)(F)F)c(N)c2C(N)=O)c(F)c1` (centres unmarked) [Example 179, 5-amino-3-[2-fluoro-4-[[(5-fluoro-2-methoxy-benzoyl)amino]methyl]phenyl]-1-(2,2,2-trifluoro-1-methyl-ethyl)pyrazole-4-carboxamide], the IC50 in experiment [1] is less than 10 nM; in experiment [2] it was less than 10 nM; at Recombinant EGFR it was 1000 to 10000 nM; in experiment [3] (Homo sapiens, OCI-Ly10, 72 h), 10 to 100 nM.

Regarding `COc1ccc(F)cc1C(=O)NCc1ccc(-c2nn(C3CCOC3)c(N)c2C(N)=O)cc1F` (centres unmarked) [Example 119, 5-amino-3-[3-fluoro-4-[[(5-fluoro-2-methoxy-benzoyl)amino]methyl]phenyl]-1-tetrahydrofuran-3-yl-pyrazole-4-carboxamide], the IC50 in experiment [1] is less than 10 nM; in experiment [2] it was less than 10 nM; at Recombinant EGFR, 1000 to 10000 nM; in experiment [3] (Homo sapiens, OCI-Ly10, 72 h), 10 to 100 nM.

In the case of `COc1ccccc1C(=O)NCc1ccc(-c2nn([C@H]3CC[C@H](F)C3)c(N)c2C(N)=O)cc1` (relative stereo) [Example 41, 5-amino-1-[(1S*,3S*)-3-fluorocyclopentyl]-3-[4-[[(2-methoxybenzoyl)amino]methyl]phenyl]pyrazole-4-carboxamide], the IC50 in experiment [1] was less than 10 nM; in experiment [2], less than 10 nM; at Recombinant EGFR it was 100 to 1000 nM; in experiment [3] (Homo sapiens, OCI-Ly10, 72 h), 10 to 100 nM.

As to `COc1ccccc1C(=O)NCc1ccc(-c2nn(CC(F)(F)F)c(N)c2C(N)=O)cc1` [Example 21, 5-Amino-3-[4-[[(2-methoxybenzoyl)amino]methyl]phenyl]-1-(2,2,2-trifluoroethyl)pyrazole-4-carboxamide], the IC50 in experiment [1] was less than 10 nM; in experiment [2], less than 10 nM; at Recombinant EGFR, 100 to 1000 nM; in experiment [3] (Homo sapiens, OCI-Ly10, 72 h), 100 to 1000 nM.

Turning to `CNc1c(C(N)=O)c(-c2ccc(CNC(=O)c3ccccc3OC)cc2)nn1-c1cccnc1` [Example 110, 3-[4-[[(2-methoxybenzoyl)amino]methyl]phenyl]-5-(methylamino)-1-(3-pyridyl)pyrazole-4-carboxamide], the IC50 fell in the range of 10 to 100 nM in experiment [1]; 10 to 100 nM in experiment [2]; 1000 to 10000 nM on Recombinant EGFR; 1000 to 10000 nM in experiment [3] (Homo sapiens, OCI-Ly10, 72 h).

Regarding `COc1ccc(F)cc1C(=O)NCc1ccc(-c2nn(C(C3CCCC3)C(F)(F)F)c(N)c2C(N)=O)cc1` (centres unmarked) [Example 196, 5-Amino-1-(1-cyclopentyl-2,2,2-trifluoro-ethyl)-3-[4-[[(5-fluoro-2-methoxy-benzoyl)amino]methyl]phenyl]pyrazole-4-carboxamide], the IC50 in experiment [1] was in the range of 10 to 100 nM; in experiment [2] it was 10 to 100 nM; at Recombinant EGFR it was 1000 to 10000 nM; in experiment [3] (Homo sapiens, OCI-Ly10, 72 h) it was 100 to 1000 nM.

For the molecule `COc1ccccc1C(=O)NCc1ccc(-c2nn(C3CCOCC3F)c(N)c2C(N)=O)cc1` (single isomer, unassigned) [Example 95, 5-amino-1-[3-fluorotetrahydropyran-4-yl]-3-[4-[[(2-methoxybenzoyl)amino]methyl]phenyl]pyrazole-4-carboxamide], the IC50 in experiment [1] was 10 to 100 nM; in experiment [2], less than 10 nM; on Recombinant EGFR, 1000 to 10000 nM; in experiment [3], 100 to 1000 nM.

`COc1ccccc1C(=O)NCc1ccc(-c2nn(-c3cccc(F)c3F)c(N)c2C(N)=O)cc1` [Example 81, 5-amino-1-(2,3-difluorophenyl)-3-[4-[[(2-methoxybenzoyl)amino]methyl]phenyl]pyrazole-4-carboxamide]: the IC50 in experiment [1] is less than 10 nM; in experiment [2] it was less than 10 nM; on Recombinant EGFR, 100 to 1000 nM; in experiment [3] (Homo sapiens, OCI-Ly10, 72 h), 10 to 100 nM.

As for `COc1ccccc1C(=O)NCc1ccc(-c2nn(CC(=O)C(C)(C)C)c(N)c2C(N)=O)cc1` [Example 10, 5-Amino-1-(3,3-dimethyl-2-oxo-butyl)-3-[4-[[(2-methoxybenzoyl)amino]methyl]phenyl]pyrazole-4-carboxamide], the IC50 in experiment [1] lay in the range of 10 to 100 nM; in experiment [2], 10 to 100 nM; on Recombinant EGFR, 1000 to 10000 nM; in experiment [3] (Homo sapiens, OCI-Ly10, 72 h), 100 to 1000 nM.

Regarding `COc1ccccc1C(=O)NCc1ccc(-c2nn(C3CCCC3)c(N)c2C(N)=O)c(F)c1` [Example 130, 5-amino-1-cyclopentyl-3-[2-fluoro-4-[[(2-methoxybenzoyl)amino]methyl]phenyl]pyrazole-4-carboxamide], the IC50 in experiment [1] is less than 10 nM; in experiment [2], less than 10 nM; on Recombinant EGFR, 1000 to 10000 nM; in experiment [3] (Homo sapiens, OCI-Ly10, 72 h), 10 to 100 nM.

For `COc1ccc(F)cc1C(=O)NCc1ccc(-c2nn(CC(C)C(F)(F)F)c(N)c2C(N)=O)cc1` (centres unmarked) [Example 176, 5-amino-3-[4-[[(5-fluoro-2-methoxy-benzoyl)amino]methyl]phenyl]-1-(3,3,3-trifluoro-2-methyl-propyl)pyrazole-4-carboxamide], the IC50 in experiment [1] was less than 10 nM; in experiment [2] it was less than 10 nM; on Recombinant EGFR, 1000 to 10000 nM; in experiment [3] (Homo sapiens, OCI-Ly10, 72 h), 10 to 100 nM.

Consider `COc1ccccc1C(=O)NCc1ccc(-c2nn([C@H]3CCOC3)c(C(F)F)c2C(N)=O)cc1` [Example 112, 5-(difluoromethyl)-3-[4-[[(2-methoxybenzoyl)amino]methyl]phenyl]-1-[(3S)-tetrahydrofuran-3-yl]pyrazole-4-carboxamide], for which the IC50 is 100 to 1000 nM in experiment [1]; 100 to 1000 nM in experiment [2]; more than 10000 nM at Recombinant EGFR; more than 10000 nM in experiment [3] (Homo sapiens, OCI-Ly10, 72 h).

Consider `COc1ccccc1C(=O)NCc1ccc(-c2nn(C3CC(C)(C)OC3(C)C)c(N)c2C(N)=O)cc1` (centres unmarked) [Example 82, 5-amino-3-[4-[[(2-methoxybenzoyl)amino]methyl]phenyl]-1-(2,2,5,5-tetramethyltetrahydrofuran-3-yl)pyrazole-4-carboxamide], for which the IC50 in experiment [1] lay within 10 to 100 nM; in experiment [2], 10 to 100 nM; at Recombinant EGFR it was 1000 to 10000 nM; in experiment [3] (Homo sapiens, OCI-Ly10, 72 h) it was 1000 to 10000 nM.

Regarding `COc1ccccc1C(=O)NCc1ccc(-c2nn(C3CCC(O)CC3)c(N)c2C(N)=O)cc1` (single isomer, unassigned) [Example 34b, 5-Amino-1-(4-hydroxycyclohexyl)-3-[4-[[(2-methoxybenzoyl)amino]methyl]phenyl]pyrazole-4-carboxamide], the IC50 was less than 10 nM in experiment [1]; less than 10 nM in experiment [2]; 1000 to 10000 nM at Recombinant EGFR; 10 to 100 nM in experiment [3] (Homo sapiens, OCI-Ly10, 72 h).

Take `COc1ccccc1C(=O)NCc1ccc(-c2nn(C3CCCC3)c(N)c2C(N)=O)c(F)c1F` [Example 155, 5-amino-1-cyclopentyl-3-[2,3-difluoro-4-[[(2-methoxybenzoyl)amino]methyl]phenyl]pyrazole-4-carboxamide]: the IC50 was less than 10 nM in experiment [1]; less than 10 nM in experiment [2]; 1000 to 10000 nM at Recombinant EGFR; 10 to 100 nM in experiment [3] (Homo sapiens, OCI-Ly10, 72 h).

For `COc1ccc(F)cc1C(=O)NCc1ccc(-c2nn(C3CCOCC3)c(N)c2C(N)=O)cc1` [Example 115, 5-amino-3-[4-[[(5-fluoro-2-methoxy-benzoyl)amino]methyl]phenyl]-1-tetrahydropyran-4-yl-pyrazole-4-carboxamide], the IC50 in experiment [1] is less than 10 nM; in experiment [2] it was less than 10 nM; at Recombinant EGFR, 1000 to 10000 nM; in experiment [3] (Homo sapiens, OCI-Ly10, 72 h) it was 10 to 100 nM.

In the case of `COc1ccccc1C(=O)NCc1ccc(-c2nn(C3CCC(C)C3)c(N)c2C(N)=O)cc1` (centres unmarked) [Example 5, 5-Amino-3-[4-[[(2-methoxybenzoyl)amino]methyl]phenyl]-1-(3-methylcyclopentyl)pyrazole-4-carboxamide], the IC50 in experiment [1] was less than 10 nM; in experiment [2] it was less than 10 nM; on Recombinant EGFR, 100 to 1000 nM; in experiment [3] (Homo sapiens, OCI-Ly10, 72 h), 10 to 100 nM.

`COc1ccccc1C(=O)NCc1ccc(-c2nn(C3CCC(O)(C(F)(F)F)CC3)c(N)c2C(N)=O)cc1` (centres unmarked) [Example 65, 5-amino-1-[4-hydroxy-4-(trifluoromethyl)cyclohexyl]-3-[4-[[(2-methoxybenzoyl)amino]methyl]phenyl]pyrazole-4-carboxamide]: the IC50 in experiment [1] was less than 10 nM; in experiment [2], less than 10 nM; at Recombinant EGFR it was 100 to 1000 nM; in experiment [3] (Homo sapiens, OCI-Ly10, 72 h), 10 to 100 nM.

The values above are taken from US11826351B2, “Compounds useful as kinase inhibitors” (Loxo Oncology, Inc., priority 2015, dated 2023).
